Test results from paper PMC8607422, “Development of a novel TLR8 agonist for cancer immunotherapy” (Molecular Biomedicine, 2020).

Assays:
hTLR8 = target: T1, hTLR8 (Homo sapiens, UniProt Q9NR97); assay: HEK-Blue hTLR8 SEAP reporter agonist assay; format: cell-based
T1 construct: host or cells: HEK-Blue hTLR8 (HEK293-derived, per own knowledge)
T1 sequence (Q9NR97 27-1041): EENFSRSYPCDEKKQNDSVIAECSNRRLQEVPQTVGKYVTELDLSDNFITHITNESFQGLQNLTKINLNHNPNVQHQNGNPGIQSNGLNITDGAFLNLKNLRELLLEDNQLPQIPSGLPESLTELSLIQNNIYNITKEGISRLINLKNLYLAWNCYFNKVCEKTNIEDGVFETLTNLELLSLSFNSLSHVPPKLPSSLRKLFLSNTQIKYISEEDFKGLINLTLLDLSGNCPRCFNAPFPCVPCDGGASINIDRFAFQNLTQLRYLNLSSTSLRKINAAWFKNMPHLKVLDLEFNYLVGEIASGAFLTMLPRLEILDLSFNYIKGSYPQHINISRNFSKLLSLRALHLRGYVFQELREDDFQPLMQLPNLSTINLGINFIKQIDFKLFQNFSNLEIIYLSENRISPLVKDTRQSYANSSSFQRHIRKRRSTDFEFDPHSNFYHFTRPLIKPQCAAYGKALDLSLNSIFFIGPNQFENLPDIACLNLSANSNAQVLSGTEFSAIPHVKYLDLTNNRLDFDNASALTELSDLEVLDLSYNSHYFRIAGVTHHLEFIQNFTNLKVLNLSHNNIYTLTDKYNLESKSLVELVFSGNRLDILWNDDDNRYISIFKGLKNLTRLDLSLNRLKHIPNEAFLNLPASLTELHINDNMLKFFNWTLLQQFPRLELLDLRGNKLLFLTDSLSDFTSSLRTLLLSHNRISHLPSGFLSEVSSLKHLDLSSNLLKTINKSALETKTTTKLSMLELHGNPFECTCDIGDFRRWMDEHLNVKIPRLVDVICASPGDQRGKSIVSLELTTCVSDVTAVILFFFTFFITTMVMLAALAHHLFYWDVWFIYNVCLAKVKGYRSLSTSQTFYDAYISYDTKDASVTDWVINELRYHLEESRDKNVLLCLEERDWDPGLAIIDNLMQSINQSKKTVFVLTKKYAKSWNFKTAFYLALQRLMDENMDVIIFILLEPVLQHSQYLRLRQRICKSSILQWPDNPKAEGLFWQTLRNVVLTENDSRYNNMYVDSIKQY
Text: HEK-Blue™ hTLR4, 7, 8 and 9 cell lines were purchased from InvivoGen (Hong Kong). The cells express the human TLR gene and NF-κB/AP-1-inducible SEAP (secreted embryonic alkaline phosphatase) reporter gene. SEAP levels produced upon TLR stimulation can be determined by QUANTI-Blue™. In the cell-based assay, the main reagents used were QUANTI-Blue™ (InvivoGen) and ATPlite 1 Step (Perkin Elmer). The main instruments used were the microplate reader SpectraMax 340PC (Molecular Device) and Envision (Perkin Elmer). […] The compounds were in 10 mM stock solution in DMSO and stored at − 20°C. […] DMSO was used as the negative control. […] The cells were cultured and treated with the compounds at 37°C, 5%CO2 for 24 h. After 24 h of incubation, 20 μl of the supernatant of each well was added to 180 μl of QUANTI-Blue™. The plates were incubated at 37°C for 1.5 h. After 1.5 h of incubation, the optical density was measured using the spectrophotometer at 650 nm in the microplate reader of SpectraMax 340PC. The cell viability of each well was determined using ATPlite 1 Step following the manufacturer’s instruction. The luminescence signal in each well of plates was measured in the microplate reader of Envision.

CYP 2D6 = target: T2, CYP 2D6 (Homo sapiens, UniProt P10635); assay: CYP inhibition assay in human liver microsomes; format: in vitro ADME
T2 construct: using human liver microsomes (BD Gentest); tissue BD Gentest; host or cells: human liver microsomes
Procedure: (§1) CYP inhibition assay was conducted to evaluate the inhibitive potential of the compounds on CYP 1A2, 2C9, 2C19, 2D6 and 3A4 using human liver microsomes (BD Gentest). Curve-fitting was performed to calculate IC50 using a Sigmoidal (non-linear) dose-response model using GraphPad Prism (GraphPad Software Inc.).

CYP 2C19 = target: T3, CYP 2C19 (Homo sapiens, UniProt P33261); assay: CYP inhibition assay in human liver microsomes; format: in vitro ADME
T3 construct: using human liver microsomes (BD Gentest); tissue BD Gentest; host or cells: human liver microsomes
Procedure: as §1

CYP 2C9 = target: T4, CYP 2C9 (Homo sapiens, UniProt P11712); assay: CYP inhibition assay in human liver microsomes; format: in vitro ADME
T4 construct: using human liver microsomes (BD Gentest); tissue BD Gentest; host or cells: human liver microsomes
Procedure: as §1

CYP 1A2 = target: T5, CYP 1A2 (Homo sapiens, UniProt P05177); assay: CYP inhibition assay in human liver microsomes; format: in vitro ADME
T5 construct: using human liver microsomes (BD Gentest); tissue BD Gentest; host or cells: human liver microsomes
T5 sequence (P05177 1-516): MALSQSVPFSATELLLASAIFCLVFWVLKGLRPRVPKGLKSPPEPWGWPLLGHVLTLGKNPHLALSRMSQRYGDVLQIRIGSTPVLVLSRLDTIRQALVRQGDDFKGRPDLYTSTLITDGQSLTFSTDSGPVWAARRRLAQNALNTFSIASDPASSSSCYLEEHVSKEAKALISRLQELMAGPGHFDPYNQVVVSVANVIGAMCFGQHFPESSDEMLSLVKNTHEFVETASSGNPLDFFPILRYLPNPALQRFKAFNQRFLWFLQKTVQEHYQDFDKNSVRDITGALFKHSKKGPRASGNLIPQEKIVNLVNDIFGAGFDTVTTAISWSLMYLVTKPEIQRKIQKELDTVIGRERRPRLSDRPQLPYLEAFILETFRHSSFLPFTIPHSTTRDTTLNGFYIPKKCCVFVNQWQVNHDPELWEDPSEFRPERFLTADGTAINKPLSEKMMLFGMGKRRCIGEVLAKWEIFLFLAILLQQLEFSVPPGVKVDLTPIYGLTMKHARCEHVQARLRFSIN
Procedure: as §1

CYP 3A4 = target: T6, CYP 3A4 (Homo sapiens, UniProt P08684); assay: CYP inhibition assay in human liver microsomes; format: in vitro ADME
T6 construct: using human liver microsomes (BD Gentest); tissue BD Gentest; host or cells: human liver microsomes
Procedure: as §1

T6 sequence (P08684 whole entry): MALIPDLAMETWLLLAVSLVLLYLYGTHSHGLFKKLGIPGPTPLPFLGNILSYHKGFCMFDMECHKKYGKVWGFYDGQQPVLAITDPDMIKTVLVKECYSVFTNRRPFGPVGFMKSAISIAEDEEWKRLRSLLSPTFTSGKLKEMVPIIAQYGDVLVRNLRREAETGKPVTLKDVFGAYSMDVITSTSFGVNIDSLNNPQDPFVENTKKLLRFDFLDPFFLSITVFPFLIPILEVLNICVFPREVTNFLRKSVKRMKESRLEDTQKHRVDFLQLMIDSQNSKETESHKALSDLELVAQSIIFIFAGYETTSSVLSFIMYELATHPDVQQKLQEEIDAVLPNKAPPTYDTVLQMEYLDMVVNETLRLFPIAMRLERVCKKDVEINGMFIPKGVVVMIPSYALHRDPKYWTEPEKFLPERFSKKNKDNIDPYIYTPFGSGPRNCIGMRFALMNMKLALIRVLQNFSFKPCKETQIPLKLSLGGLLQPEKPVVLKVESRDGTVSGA
T2 sequence (P10635 whole entry): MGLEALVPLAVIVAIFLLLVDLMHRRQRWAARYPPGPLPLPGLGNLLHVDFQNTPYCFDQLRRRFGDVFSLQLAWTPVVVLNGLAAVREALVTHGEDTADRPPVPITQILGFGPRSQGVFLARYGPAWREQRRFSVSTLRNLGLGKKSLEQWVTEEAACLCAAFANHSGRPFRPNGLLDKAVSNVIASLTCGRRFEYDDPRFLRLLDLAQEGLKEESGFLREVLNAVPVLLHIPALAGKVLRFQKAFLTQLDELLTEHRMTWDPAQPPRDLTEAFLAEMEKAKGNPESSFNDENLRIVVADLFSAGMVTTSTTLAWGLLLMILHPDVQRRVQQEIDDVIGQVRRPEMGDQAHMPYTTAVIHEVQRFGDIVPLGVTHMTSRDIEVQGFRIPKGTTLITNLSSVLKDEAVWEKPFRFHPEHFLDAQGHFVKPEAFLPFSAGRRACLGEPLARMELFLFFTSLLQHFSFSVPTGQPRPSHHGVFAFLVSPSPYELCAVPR
T4 sequence (P11712 whole entry): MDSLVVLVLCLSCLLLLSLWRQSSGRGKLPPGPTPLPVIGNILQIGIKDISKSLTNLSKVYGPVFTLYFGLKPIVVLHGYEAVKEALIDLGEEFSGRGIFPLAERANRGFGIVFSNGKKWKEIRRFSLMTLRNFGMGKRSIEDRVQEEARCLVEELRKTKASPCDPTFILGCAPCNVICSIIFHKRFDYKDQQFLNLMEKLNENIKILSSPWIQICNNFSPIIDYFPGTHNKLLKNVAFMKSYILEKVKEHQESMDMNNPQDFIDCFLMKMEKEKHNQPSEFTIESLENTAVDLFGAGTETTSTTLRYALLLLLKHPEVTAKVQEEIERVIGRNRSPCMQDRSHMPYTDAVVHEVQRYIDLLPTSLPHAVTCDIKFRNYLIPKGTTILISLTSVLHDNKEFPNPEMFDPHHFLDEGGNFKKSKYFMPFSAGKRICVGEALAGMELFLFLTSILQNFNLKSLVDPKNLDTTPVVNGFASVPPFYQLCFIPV
T3 sequence (P33261 whole entry): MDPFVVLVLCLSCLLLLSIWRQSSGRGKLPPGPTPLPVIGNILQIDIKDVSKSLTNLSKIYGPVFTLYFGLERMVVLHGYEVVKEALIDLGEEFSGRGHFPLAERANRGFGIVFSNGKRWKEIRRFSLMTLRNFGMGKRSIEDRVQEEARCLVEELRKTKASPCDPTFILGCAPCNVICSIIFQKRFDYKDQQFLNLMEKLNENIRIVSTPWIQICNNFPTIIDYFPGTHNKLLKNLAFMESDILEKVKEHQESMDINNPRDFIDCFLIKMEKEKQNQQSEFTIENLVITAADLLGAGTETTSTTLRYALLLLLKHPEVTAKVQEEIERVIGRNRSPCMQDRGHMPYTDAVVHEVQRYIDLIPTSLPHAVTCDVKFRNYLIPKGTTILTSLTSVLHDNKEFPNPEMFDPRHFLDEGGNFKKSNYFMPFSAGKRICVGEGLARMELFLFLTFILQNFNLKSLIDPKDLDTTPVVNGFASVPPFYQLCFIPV

CCCN(CCC)C(=O)C1=Cc2ccc(-c3ccc(C(=O)N4CCCC4)cc3)cc2N=C(N)C1 [Motolimod, motolimod]
EC50 (hTLR8; HEK-Blue hTLR8 cells, 24 h, SEAP, read-out: EC50 in hTLR8 agonist activity (TLR8 cell EC50)): 0.109 µM
TLR8 selectivity (hTLR8; TLR8 over other TLR cell EC50): 182 fold
IC50 (CYP 2D6): > 10 µM
IC50 (CYP 2C19): > 10 µM
IC50 (CYP 2C9): > 10 µM
IC50 (CYP 1A2): > 10 µM
IC50 (CYP 3A4): > 10 µM
